Reference: PubChem BioAssay (NCI)
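Growth conditions: 96-well plates. Treatment: test compound, 48 hours, 5 concentrations. Analysis: linear interpolation between bracketing concentrations; unreached endpoints set to highest concentration. TGI: concentration producing complete growth inhibition.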

system: SNB-19 CNS; experiment: growth of human tumour cells (NCI), 48 h

COC(=O)C1CCCN1C(=O)C(Cc1cn(S(=O)(=O)c2ccc(C)cc2)cn1)NC(=O)OC(C)(C)C (stereo not drawn) and COC(=O)C1=C(C)NC(C)=C(C(=O)OC)C1c1nc2sccn2c1[N+](=O)[O-] cannot be ordered by TGI: greater than 100 µM for the first, greater than 100 µM for the second.

CC(=O)O[C@]12CCCCCC1C1(O)C(O)CCCC[C@H]12 (stereo partly drawn) and Cn1c(COC(=O)Nc2ccccc2)c(COC(=O)Nc2ccccc2)c2ccc3cc(Cl)c(Cl)cc3c21 cannot be ordered by TGI: greater than 100 µM for the first, greater than 75 µM for the second.

In the case of O=c1c(C(c2ccc(Cl)cc2)c2c(O)c3ccccc3n(-c3ccccc3)c2=O)c(O)c2ccccc2n1-c1ccccc1, the TGI is reported as greater than 100 µM.

system: OVCAR-4 ovarian; experiment: growth of human tumour cells (NCI), 48 h

Point of comparison: COc1ccc(C2COc3cc(O)c(O)cc3C2)cc1 (stereo not drawn), TGI 45.6 µM. Against it:
- OCc1ccc(C2CC(c3ccco3)=NN2c2ccccc2)o1 (stereo not drawn) — higher, > 100 µM
- O=C1/C(=C/c2ccc(Cl)cc2)CSc2ccccc21 — 1.6-fold higher, 71.4 µM
- CCOC(=O)c1ccc(C)c(N=NN(C)C)c1 — higher, > 100 µM
- CC(C)CC(O)P(=O)(O)O (stereo not drawn) — higher, > 100 µM
- Cc1ccc(S(=O)(=O)NC(=O)N[C@@H](Cc2cnc[nH]2)C(=O)O)cc1 — higher, > 100 µM
- O=NN(CCCl)C(=O)NC1CCC(O)CC1 (stereo not drawn) — higher, > 100 µM
- CC(=O)NC1c2ccccc2C(C)(C)C12CCC1(CC2)OCCO1 (stereo not drawn) — higher, > 100 µM
- [N-]=[N+]=NC1=C(c2ccccn2)C(=O)c2cccc3cccc1c23 — higher, > 100 µM
- Cc1ccc(O)c(-c2cscn2)c1 — higher, > 100 µM
- CC(C(O)Cc1ccccc1)N(C)N=Nc1ccc([N+](=O)[O-])cc1 (stereo not drawn) — higher, > 100 µM
- CSc1sc2ccccc2[s+]1 — higher, > 100 µM
- Cc1ccc(S(=O)(=O)C(C#N)c2nc3ccccc3nc2-n2ccnc2)cc1 (stereo not drawn) — higher, > 100 µM
- O=C1c2ccccc2C2(c3ccc(Cl)cc3)N[C@H]3CCCC[C@@H]3N12 (stereo partly drawn) — higher, > 100 µM
- CC(=O)O[C@]12CCCCCC1C1(O)C(O)CCCC[C@H]12 (stereo partly drawn) — higher, > 100 µM
- COC(=O)C1=C(C)NC(C)=C(C(=O)OC)C1c1nc2sccn2c1[N+](=O)[O-] — higher, > 100 µM
- O=c1c(C(c2ccc(Cl)cc2)c2c(O)c3ccccc3n(-c3ccccc3)c2=O)c(O)c2ccccc2n1-c1ccccc1 — higher, > 100 µM

system: EKVX NSCLC; experiment: growth of human tumour cells (NCI), 48 h

Point of comparison: O=c1c(C(c2ccc(Cl)cc2)c2c(O)c3ccccc3n(-c3ccccc3)c2=O)c(O)c2ccccc2n1-c1ccccc1, TGI 91.1 µM. Against it:
- COc1c(C(C)C)cc2c3c1OC(=O)[C@@]31CCCC(C)(C)C1CC2 (stereo partly drawn) — within 1.5-fold, 65.3 µM
- OCc1ccc(C2CC(c3ccco3)=NN2c2ccccc2)o1 (stereo not drawn) — higher, > 100 µM
- COc1ccc(C2COc3cc(O)c(O)cc3C2)cc1 (stereo not drawn) — 1.8-fold lower, 49.9 µM
- CCCCN=C(c1ccccc1)N1CCOCC1 — higher, > 100 µM
- CCOC(=O)c1ccc(C)c(N=NN(C)C)c1 — higher, > 100 µM
- CC(C)CC(O)P(=O)(O)O (stereo not drawn) — higher, > 100 µM
- COc1cc2c3c(c1OC)C1(C=CC(=O)C=C1)C[C@H]3N(C)CC2 — higher, > 100 µM
- O=NN(CCCl)C(=O)NC1CCC(O)CC1 (stereo not drawn) — higher, > 100 µM
- CC(=O)NC1c2ccccc2C(C)(C)C12CCC1(CC2)OCCO1 (stereo not drawn) — higher, > 100 µM
- CC1=NNC(=O)C1C(CC(=O)c1c[nH]c2ccccc12)C(=O)O (stereo not drawn) — higher, > 100 µM
- Cc1ccc(O)c(-c2cscn2)c1 — higher, > 100 µM
- CC(C(O)Cc1ccccc1)N(C)N=Nc1ccc([N+](=O)[O-])cc1 (stereo not drawn) — within 1.5-fold, 73.2 µM
- O=C(CN(c1ccccc1)c1ccccc1)n1nnc2ccccc21 — higher, > 100 µM
- COc1cc(OC)c(C2c3cc4c(cc3OC(N3CCCC3)C2C)OCO4)c(OC)c1 (stereo not drawn) — higher, > 100 µM
- Cc1ccc(S(=O)(=O)C(C#N)c2nc3ccccc3nc2-n2ccnc2)cc1 (stereo not drawn) — higher, > 100 µM
- O=C1c2ccccc2C2(c3ccc(Cl)cc3)N[C@H]3CCCC[C@@H]3N12 (stereo partly drawn) — higher, > 100 µM
- COC(=O)C1CCCN1C(=O)C(Cc1cn(S(=O)(=O)c2ccc(C)cc2)cn1)NC(=O)OC(C)(C)C (stereo not drawn) — higher, > 100 µM
- CC(=O)O[C@]12CCCCCC1C1(O)C(O)CCCC[C@H]12 (stereo partly drawn) — higher, > 100 µM
- COC(=O)C1=C(C)NC(C)=C(C(=O)OC)C1c1nc2sccn2c1[N+](=O)[O-] — higher, > 100 µM
- Cn1c(COC(=O)Nc2ccccc2)c(COC(=O)Nc2ccccc2)c2ccc3cc(Cl)c(Cl)cc3c21 — 2-fold lower, 44.5 µM

system: MOLT-4 leukemia; experiment: growth of human tumour cells (NCI), 48 h

Point of comparison: COc1ccc(C2COc3cc(O)c(O)cc3C2)cc1 (stereo not drawn), TGI 24.6 µM. Against it:
- COc1c(C(C)C)cc2c3c1OC(=O)[C@@]31CCCC(C)(C)C1CC2 (stereo partly drawn) — higher, > 100 µM
- OCc1ccc(C2CC(c3ccco3)=NN2c2ccccc2)o1 (stereo not drawn) — higher, > 100 µM
- O=C1/C(=C/c2ccc(Cl)cc2)CSc2ccccc21 — higher, > 100 µM
- CCCCN=C(c1ccccc1)N1CCOCC1 — higher, > 100 µM
- CCOC(=O)c1ccc(C)c(N=NN(C)C)c1 — higher, > 100 µM
- CC(C)CC(O)P(=O)(O)O (stereo not drawn) — higher, > 100 µM
- Cc1ccc(S(=O)(=O)NC(=O)N[C@@H](Cc2cnc[nH]2)C(=O)O)cc1 — higher, > 100 µM
- COc1cc2c3c(c1OC)C1(C=CC(=O)C=C1)C[C@H]3N(C)CC2 — higher, > 100 µM
- O=NN(CCCl)C(=O)NC1CCC(O)CC1 (stereo not drawn) — 2.8-fold higher, 68.4 µM
- CC(=O)NC1c2ccccc2C(C)(C)C12CCC1(CC2)OCCO1 (stereo not drawn) — higher, > 100 µM
- [N-]=[N+]=NC1=C(c2ccccn2)C(=O)c2cccc3cccc1c23 — 4-fold lower, 6.16 µM
- CC1=NNC(=O)C1C(CC(=O)c1c[nH]c2ccccc12)C(=O)O (stereo not drawn) — higher, > 100 µM
- Cc1ccc(O)c(-c2cscn2)c1 — higher, > 100 µM
- CC(C(O)Cc1ccccc1)N(C)N=Nc1ccc([N+](=O)[O-])cc1 (stereo not drawn) — higher, > 100 µM
- O=C(CN(c1ccccc1)c1ccccc1)n1nnc2ccccc21 — higher, > 100 µM
- CSc1sc2ccccc2[s+]1 — higher, > 100 µM
- COc1cc(OC)c(C2c3cc4c(cc3OC(N3CCCC3)C2C)OCO4)c(OC)c1 (stereo not drawn) — within 1.5-fold, 31.6 µM
- Cc1ccc(S(=O)(=O)C(C#N)c2nc3ccccc3nc2-n2ccnc2)cc1 (stereo not drawn) — higher, > 100 µM
- O=C1c2ccccc2C2(c3ccc(Cl)cc3)N[C@H]3CCCC[C@@H]3N12 (stereo partly drawn) — higher, > 100 µM
- COC(=O)C1CCCN1C(=O)C(Cc1cn(S(=O)(=O)c2ccc(C)cc2)cn1)NC(=O)OC(C)(C)C (stereo not drawn) — higher, > 100 µM
- CC(=O)O[C@]12CCCCCC1C1(O)C(O)CCCC[C@H]12 (stereo partly drawn) — higher, > 100 µM
- COC(=O)C1=C(C)NC(C)=C(C(=O)OC)C1c1nc2sccn2c1[N+](=O)[O-] — higher, > 100 µM
- Cn1c(COC(=O)Nc2ccccc2)c(COC(=O)Nc2ccccc2)c2ccc3cc(Cl)c(Cl)cc3c21 — higher, > 75 µM
- O=c1c(C(c2ccc(Cl)cc2)c2c(O)c3ccccc3n(-c3ccccc3)c2=O)c(O)c2ccccc2n1-c1ccccc1 — higher, > 100 µM

system: COLO 205 colon; experiment: growth of human tumour cells (NCI), 48 h

Point of comparison: CC(C(O)Cc1ccccc1)N(C)N=Nc1ccc([N+](=O)[O-])cc1 (stereo not drawn), TGI 39.2 µM. Against it:
- COc1c(C(C)C)cc2c3c1OC(=O)[C@@]31CCCC(C)(C)C1CC2 (stereo partly drawn) — within 1.5-fold, 31.9 µM
- OCc1ccc(C2CC(c3ccco3)=NN2c2ccccc2)o1 (stereo not drawn) — higher, > 100 µM
- COc1ccc(C2COc3cc(O)c(O)cc3C2)cc1 (stereo not drawn) — within 1.5-fold, 27.8 µM
- O=C1/C(=C/c2ccc(Cl)cc2)CSc2ccccc21 — 1.6-fold higher, 64.3 µM
- CCCCN=C(c1ccccc1)N1CCOCC1 — higher, > 100 µM
- CCOC(=O)c1ccc(C)c(N=NN(C)C)c1 — higher, > 100 µM
- CC(C)CC(O)P(=O)(O)O (stereo not drawn) — higher, > 100 µM
- Cc1ccc(S(=O)(=O)NC(=O)N[C@@H](Cc2cnc[nH]2)C(=O)O)cc1 — higher, > 100 µM
- COc1cc2c3c(c1OC)C1(C=CC(=O)C=C1)C[C@H]3N(C)CC2 — higher, > 100 µM
- O=NN(CCCl)C(=O)NC1CCC(O)CC1 (stereo not drawn) — higher, > 72.9 µM
- CC(=O)NC1c2ccccc2C(C)(C)C12CCC1(CC2)OCCO1 (stereo not drawn) — higher, > 100 µM
- [N-]=[N+]=NC1=C(c2ccccn2)C(=O)c2cccc3cccc1c23 — higher, > 100 µM
- CC1=NNC(=O)C1C(CC(=O)c1c[nH]c2ccccc12)C(=O)O (stereo not drawn) — higher, > 100 µM
- Cc1ccc(O)c(-c2cscn2)c1 — higher, > 100 µM
- O=C(CN(c1ccccc1)c1ccccc1)n1nnc2ccccc21 — higher, > 100 µM
- CSc1sc2ccccc2[s+]1 — higher, > 100 µM
- Cc1ccc(S(=O)(=O)C(C#N)c2nc3ccccc3nc2-n2ccnc2)cc1 (stereo not drawn) — higher, > 100 µM
- O=C1c2ccccc2C2(c3ccc(Cl)cc3)N[C@H]3CCCC[C@@H]3N12 (stereo partly drawn) — higher, > 100 µM
- CC(=O)O[C@]12CCCCCC1C1(O)C(O)CCCC[C@H]12 (stereo partly drawn) — higher, > 100 µM
